The values below come from US10434134B2, “Peptide treatment for inflammation and fibrosis” (The Regents of the University of California, priority 2015, dated 2019).

Data set [1] in a line: Plasma levels of peptide and MPR-intermediate after IV PEGylated-peptide 361332. The class given is in vivo. The note with it: CD-1 mouse, n = 1. An excerpt: Studies using the PEGylated-peptide 361332 are provided
Levels of Peptide and MPR-Intermediate in Plasma Samples

Data set [2] deals with Mouse Activated Liver Myofibroblasts. The data set can be described thus: Cell death of activated primary mouse liver myofibroblasts in culture. The format is cell-based.
Data set [3] relates to Human Activated Liver Myofibroblasts. The data set can be described thus: Cell death of activated primary human liver myofibroblasts in culture. The class given is cell-based. On the set-up: concentration or dose not given beside the values. From the text:
(§1) Assays were used in a step-wise manner to select the safest and most efficient peptides (including apoptosis assays in activated primary human liver myofibroblasts; cell-free caspase 8 activation assays; acute liver injury/fibrogenesis models; toxicology assays in highly differentiated, primary human hepatocyte cultures and in mice).

Data set [4] has as its system primary mouse and human hepatocytes.
Description: as §1

The next data set can be described thus: Mouse toxicity (in vivo). The note with it: for Mouse Toxicity (in vivo): 20 mg/kg.
Description: as §1

In data set [5] the test system is CCl4-induced acute liver injury in mice. The data set can be described thus: Acute CCl4 liver injury and activation of liver myofibroblasts in mice (Example 1). The class given is in vivo, mouse. On the set-up: serum ALT: unit not given here. The note with it: for minimizing acute liver injury and activation of myofibroblasts: compared with the lead PEG peptide. How it is done: FIG. 1. The therapeutic lead peptide inhibits the activation of liver myofibroblasts and liver injury that induces fibrosis following exposure to the human hepatotoxin CCl4. A single dose of CCl4 was administered to C/EBPβ-wt mice (4). Eight hours later, animals received an IP injection of the therapeutic lead peptide (5 μg of peptide linked to PEG). Animals were sacrificed at 30 hr after the CCl4 administration. The animals receiving only CCl4 had intense activation of myofibroblasts (as determined by α-SMA) (upper row) and severe liver injury (as assessed by standard clinical examination just before sacrifice); the lead peptide blocked the discoloration and granular appearance of severe liver injury. The livers of treated mice were similar to control (second row). The histopathology induced by CCl4 was activation of myofibroblasts (α-SMA), severe liver injury (H&E stain) with collapse of the architecture (Reticulin stain). The therapeutic PEG-30 kDa-peptide decreased both the activation of myofibroblasts and the injury to the liver.
To induce acute liver injury, a single dose of the human hepatotoxin Carbon Tetrachloride (CCl4) was administered to normal mice (4). Eight hours later, animals received an IP injection of the lead therapeutic PEG-30 kDa-peptide (5 μg of the peptide linked [peptide to PEG at 1:60] to the PEG-30 kDa). Animals were sacrificed after 30 hr, at the peak of hepatocyte death as measured by ALT (a clinical end-point used routinely in clinical practice and by the FDA in the evaluation of liver toxicity in human drug studies) (16). […] There was severe acute liver injury in animals receiving CCl4 but mild-to-moderate injury in animals receiving both CCl4 and the lead therapeutic compound (FIG. 1).

For data set [6], the system named is CCl4-induced liver fibrosis in mice. The data set can be described thus: Chronic 16-wk CCl4 mouse model of liver fibrosis (Example 2). The note with it: for decrease of liver fibrosis / Liver fibrosis, quantification of the Sirius stain (percentage fibrosis/area): CCl4 16-wk; for decrease of liver fibrosis: 7 μg IP once per week from week-8; for Liver fibrosis, quantification of the Sirius stain (percentage fibrosis/area): 7 μg peptide linked to 420 μg PEG-30 kDa once a week from week-8, n=6/group. The class given is in vivo. How it is done:
FIGS. 2A-2B. High efficacy of the therapeutic PEG-30 kDa-peptides in a chronic mouse model of liver fibrosis. All groups of mice (except control) received CCl4 administration for 16-wk (n=6/group). The CCl4 treatment group received only the hepatotoxin, while the other groups also received the indicated therapeutic PEG-30 kDa-peptide (7 μg of peptide linked to 420 μg PEG-30 kDa once a week) starting at week-8. FIG. 2A. Liver fibrosis was determined by quantification of the Sirius stain (percentage fibrosis/area) as described (7; 25): control (0.02+/−0.01); lead peptide (0.8+/−0.7); alternate peptide 1 (2.1+/−1.0); alternate peptide 2 (3.5+/−1.2) and CCl4 (6.7+/−1.6%). P<0.0001 for lead peptide 1 and P<0.001 for alternate peptides 1 and 2. FIG. 2B. Liver fibrosis was detected histologically by the trichrome stain for liver fibrosis as it is the clinical standard. The control animals (receiving only vehicle control) had negligible fibrosis (stage 0-1/VI); animals receiving CCl4 for 16 weeks developed severe fibrosis (stage 5/VI or 6/VI; which would be clinically significant in patients); while animals receiving CCl4 for 16 weeks and also the lead PEG-30 kDa-peptide 1 starting at week-8 had minor fibrosis (stage 1-2/VI; which would not be clinically significant in patients).
The therapeutic lead PEG-peptides underwent a systematic analysis of efficacy and safety in a classical chronic liver fibrosis model (7; 15; 24; 38). CCl4 (a human hepatotoxin) was administered to mice for 16-wk as a classical model of liver fibrosis (7). The three selected therapeutic PEG-peptides were administered once a week IP (7 μg of peptide linked to PEG) starting at week 8, once severe liver fibrosis was already established. The efficacy of the three selected PEG peptides included quantitative analysis of liver fibrosis (7). CCl4 administration to mice for 16-wk induced liver cirrhosis (FIGS. 2A and 2B). […] This mimics the treatment given for several years to a patient with established severe liver fibrosis.
The Ac-Lys-D-Ala-D-Val-Asp-NH2 was administered IP (7 μg of peptide linked to PEG-30 kDa) once/week for an additional 4 or 8 weeks. The CCl4 administration continued for 4 or 8 weeks. The Ac-Lys-D-Ala-D-Val-Asp-NH2 peptide inhibited liver fibrosis by 8-fold.
The parent peptide inhibited liver fibrosis by only 2 to 3-fold.

Data set [7] deals with Bleomycin-induced lung fibrosis in C/EBPβ-wt mice. The data set can be described thus: Bleomycin mouse model of lung fibrosis, various administration routes (Example 11). The class given is in vivo. The note with it: for decrease in lung fibrosis: days 10, 17 and 24. As for the experimental part: C/EBPβ-wt mice received Bleomycin administration as described above. On day-10, once the fibrotic reaction is established, mice received i) PEG-30 kDa-Lys-DAla-DVal-Asp-NH2 intraperitoneally (IP) 10 μg of peptide linked to PEG, on days 10, 17 and 24); or ii) peptide PEG-30 kDa-Lys-DAla-DVal-Asp-NH2 by inhalation (mean particle size […]—which reaches efficiently the alveoli-, 800 μg of peptide on days 10, 17 and 24; specific inhalation parameters are shown in Table 2). The peptide was administered for less than 1 hour a day [on days 10, 17, and […]] via nose-only inhalation of the test material aerosol at a nominal concentration of 1.0 mg/L [800 μg/dose]; or iii) peptide PEG-30 kDa-Lys-DAla-DVal-Asp-NH2 by intratracheal instillation (40 μg of peptide on days 10, 17 and 24).
Control groups received sterile water instead of Bleomycin; peptide IP; peptide by inhalation; or peptide by intratracheal instillation. Animals were sacrificed on day 27. The left lung was inflated with fixative, analyzed by trichrome stain and quantified in its entirety by the Odyssey Visualization microscopy software protocol to minimize analytical errors as described previously (Ramamoorthy et al., 2009, American Journal of Physiology, Endocrinology and Metabolism 297: e392-401). The right lung was snap frozen in liquid nitrogen and used for IMH, immunoblots and qRT-PCR.

[8] abbreviates: liver, 30 hr after CCl4, single IP 5 μg at 8 hr.

Where a SMILES comes first, the peptide text is derived from it. Where no end group is shown, it is not given here. [ ]: non-standard residue; d: D form. Mpa = O=C(O)CCS

For the compound `CC(C)[C@@H](NC(=O)[C@@H](C)NC(=O)[C@H](CCCCN)NC(=O)CCS)C(=O)N[C@@H](CC(=O)O)C(N)=O` [Mpr-Lys-DAla-DVal-Asp-NH2] ([Mpa]K[dA][dV]D-NH2), the “Conc. (ng/mL) in plasma” value in data set [1] (4 hours after IV PEGylated-peptide 361332, 7.5 mg/kg peptide equivalent) is 1291 ng/mL; in data set [1] (8 hours after IV PEGylated-peptide 361332, 7.5 mg/kg peptide equivalent), 900 ng/mL; in data set [1] (24 hours after IV PEGylated-peptide 361332, 7.5 mg/kg peptide equivalent), 921 ng/mL; in data set [1] (48 hours after IV PEGylated-peptide 361332, 7.5 mg/kg peptide equivalent), 1523 ng/mL.

With “Ac-Lys-Ala-Val-Asp-NH2 (Ac-KAVD-NH2) [Parent peptide, reference compound]”, in data set [2], the “Mouse Activated Liver Myofibroblasts Death Cell (%) [20 ng/ml]” value is recorded as 89.5%. In addition, the “Human Activated Liver Myofibroblasts Death Cell (%)” value in data set [3] came to 80.9%. In data set [4], the “Hepatocyte Toxicity [20 ng/ml]” value is listed as “No toxicity”. Moreover, the “Mouse Toxicity (in vivo)” value in the data set “Mouse toxicity (in vivo)” is reported as “No:”. Besides, in “Mouse toxicity (in vivo)” (mouse, in vivo), the “toxicity issues observed in mice” value is listed as “no toxicity issues”.

On to “PEG-30 kDa-Lys-DAla-DVal-Asp-NH2 [Lead therapeutic peptide]”, for which the “Mouse Activated Liver Myofibroblasts Death Cell (%) [20 ng/ml]” value in data set [2] is 90.5%. The “Human Activated Liver Myofibroblasts Death Cell (%)” value in data set [3] amounted to 86.2%. For the same compound, in data set [4], the “Hepatocyte Toxicity [20 ng/ml]” value is on record as “No toxicity”. In the data set “Mouse toxicity (in vivo)”, the “Mouse Toxicity (in vivo)” value is listed as “No:”. Further, the “serum ALT” value in data set [5] (30 hr after CCl4, single IP treatment (5 μg peptide linked to PEG-30 kDa) 8 hr after CCl4) was 6,754+/−905. Moreover, in data set [5] (CCl4 plus peptide, 30 hr), the “acute liver injury severity” value was “mild-to-moderate” and the “expression of α-SMA in the liver (activated liver myofibroblasts)” value is recorded as “minor expression”. Besides, in data set [5] (setting [8]), the “IL-6 mRNA” value is given as “normal”; the “TNF-α mRNA, increase from control values” was 4 fold; the “albumin mRNA, decrease from control values” worked out at 2 fold. Also, in data set [6], the “decrease of liver fibrosis” value was more than 8 fold and the “Liver fibrosis, quantification of the Sirius stain (percentage fibrosis/area)” value (“Liver fibrosis … (percentage fibrosis/area)” for short) is 0.8+/−0.7%. Moreover, in data set [6] (CCl4 16 weeks, peptide starting at week-8), the “Liver fibrosis stage, trichrome stain” value is reported as 1-2 /VI. Further, in data set [7] (IP), the “inhibition in lung alveolar epithelial cell apoptosis” value was approximately 60% and the “surfactant protein-C (SFPC) expression by quantitative IHC” value is “essentially normal”. Besides, the “decrease in lung fibrosis” value in data set [7] (IP 10 μg of peptide linked to PEG) is approximately 60%. Also, in data set [7] (all treatments (IP, inhalation, intratracheal)), the “lung inflammation as determined by the expression of IL-23R (marker of Th-17 cells)” value is listed as “decreased”. The “improvement of Tidal Volume” value in data set [7] (all treatments (IP, intratracheal instillation, inhalation), 14-day treatment) is given as more than 35%. In data set [7] (inhalation), the “inhibition in lung alveolar epithelial cell apoptosis” value was approximately 60% and the “surfactant protein-C (SFPC) expression by quantitative IHC” value was “essentially normal”. The “decrease in lung fibrosis” value in data set [7] (inhalation 800 μg of peptide) is recorded as approximately 60%. For the same compound, the “efficacy on lung fibrosis” value in data set [7] (intratracheal instillation 40 μg of peptide, days 10, 17 and 24 (therapeutic positive control)) was “outstanding efficacy”. For the same compound, in data set [7] (three peptide formulations), the “TGFβ1 by RT-PCR” value is given as “decreased” and the “collagen α 1 by RT-PCR” value was “decreased”.

For “Peg-30kDa-Lys-Ala-DVal-Asp-NH2 [Alternate therapeutic peptide 2]”, the “Mouse Activated Liver Myofibroblasts Death Cell (%) [20 ng/ml]” value in data set [2] is given as 57.1%. Also, the “Human Activated Liver Myofibroblasts Death Cell (%)” value in data set [3] was 72.3%. Further, the “Hepatocyte Toxicity [20 ng/ml]” value in data set [4] was “No toxicity”. Further, the “minimizing acute liver injury and activation of myofibroblasts” value in data set [5] is recorded as “performed similarly to the lead PEG peptide”. Further, in data set [6], the “decrease of liver fibrosis” value is on record as approximately 2 fold and the “Liver fibrosis … (percentage fibrosis/area)” value is 3.5+/−1.2%.

Regarding “Peg-30kDa-Lys-DAla-Val- Asp-NH2 [Alternate therapeutic peptide 1]”, the “Mouse Activated Liver Myofibroblasts Death Cell (%) [20 ng/ml]” value in data set [2] was 79.9%. In data set [3], the “Human Activated Liver Myofibroblasts Death Cell (%)” value amounted to 67.9%. The “Hepatocyte Toxicity [20 ng/ml]” value in data set [4] is reported as “No toxicity”. Also, the “minimizing acute liver injury and activation of myofibroblasts” value in data set [5] was “performed similarly to the lead PEG peptide”. Also, in data set [6], the “decrease of liver fibrosis” value is approximately 3 fold and the “Liver fibrosis … (percentage fibrosis/area)” value is on record as 2.1+/−1.0%.

For the compound [dK]AV[dD]-NH2, in data set [3], the “Human Activated Liver Myofibroblasts Death Cell (%)” value was 44.0%.

As to [dK]A[dV]D-NH2, in data set [3], the “Human Activated Liver Myofibroblasts Death Cell (%)” value came to 30.6%.
